Our source for the logP and logD values is the SangsterLogP compilation.

Data set [1] can be described thus: method code SF, from DOI: 10.1016/0378-5173(91)90120-d.
Experiment in data set [2]: not given
This is another data set of the same source.

The nature of data set [3]: method code SF-AS, from Kofitsekpo, W. (1980). An experimental evaluation of the log P of oxamniquine - a new schistosomicide. Drugs under experimental and clinical research, 6(5)421-426.
Data set [4] can be described thus: method code SF-RC, from DOI: 10.1016/j.nucmedbio.2009.09.005, PMID: 20447558. Conditions: pH 7.4.
Data set [5] is described as follows: method code SF-AS, from Lippold, B.; Lichey, J. (1984). Transport of drugs through lipophilic polymer membranes. II. Influence of the partition and diffusion coefficients. Acta pharmaceutica technologica, 30(2)140-154.
Experiment in data set [6]: not given
This is another data set of the same source.

Data set [7] is described as follows: method code SF-RC, from DOI: 10.1016/j.nucmedbio.2010.09.012, PMID: 21492779. Conditions: pH 7.4.
Experiment in data set [8]: not given
The source holds these as a separate data set.

Experiment in data set [9]: not given
The source holds these as a separate data set.

The nature of data set [10]: method code SF, from PMID: 2161451. Conditions: pH 7.4.
Data set [11] in a line: method code SF-RC, from DOI: 10.1016/s0969-8051(02)00326-8, PMID: 12234587. Conditions: pH 7.4.
A short description of data set [12]: method code SF, from DOI: 10.1023/a:1007583422634, PMID: 11028945. Conditions: pH 7.4.
The nature of data set [13]: method code SF-AS, from DOI: 10.1021/jm00384a018, PMID: 3806586.
Experiment in data set [14]: not given
The source holds these as a separate data set.

Experiment in data set [15]: not given
This is another data set of the same source.

Data set [16] is described as follows: method code SF-RC, from DOI: 10.1016/j.bmc.2013.04.077, PMID: 23712084. Conditions: pH 7.4.
Experiment in data set [17]: not given
This is another data set of the same source.

Experiment in data set [18]: not given
This is another data set of the same source.

The nature of data set [19]: method code SF-HPLC, from DOI: 10.1002/ps.2780130506.
Data set [20] is described as follows: method code SF-AS, from DOI: 10.1128/aac.27.1.84, PMID: 2580479.
Data set [21] in a line: method code SF-RC, from DOI: 10.1016/j.nucmedbio.2007.07.017, PMID: 17998101. Conditions: pH 7.4.
The nature of data set [22]: method code SF, from DOI: 10.1021/jm5017544, PMID: 25671691. Conditions: pH 7.4.
Experiment in data set [23]: not given
This is another data set of the same source.

Data set [24] in a line: method code SF-RC, from DOI: 10.1016/s0968-0896(99)00108-x, PMID: 10530922. Conditions: pH 7.2.
Data set [25] can be described thus: method code SF-MB, from DOI: 10.1016/0378-5173(83)90017-0. Conditions: pH 3.5.
The nature of data set [26]: method code SF-RC, from DOI: 10.1016/s0024-3205(01)01232-2. The settings on record: pH 7.4.
Data set [27] is described as follows: method code SF-AS, from DOI: 10.3109/00498258909043190, PMID: 2618089. The settings on record: pH 10.8.
Data set [28] can be described thus: method code SF-HPLC, from DOI: 10.1023/a:1015968113838, PMID: 3247280. The settings on record: pH 7.4.
Data set [29] is described as follows: method code SF-HPLC, from PMID: 18557421. The settings on record: pH 1.0.
A short description of data set [30]: method code SF-RC, from Bracha, P.; O'Brien, D. (1966). The relation between physical properties and uptake of insecticides by eggs of the large milkweed bug. J Econ Entomol, 59(5)1255-1264.
The nature of data set [31]: method code SF-SF, from DOI: 10.1016/j.ejps.2010.09.003, PMID: 20854904. Conditions: pH 10.0.
Experiment in data set [32]: not given
The source holds these as a separate data set.

Experiment in data set [33]: not given
The source holds these as a separate data set.

Data set [34] is described as follows: method code SF-AS, from Pogodaeva, N.; Medvedeva, S. (2005). Hydrophobic properties of a number of monosubstituted flavone and flavanone derivatives. Russian Journal of Physical Chemistry A, 79(4)645-648.
Experiment in data set [35]: not given
The source holds these as a separate data set.

Experiment in data set [36]: not given
The source holds these as a separate data set.

Experiment in data set [37]: not given
This is another data set of the same source.

Data set [38] can be described thus: method code SF-HPLC, from DOI: 10.1016/0378-5173(95)00102-o.
Data set [39] in a line: method code SF-AS, from DOI: 10.1021/jf990946w, PMID: 10888534.
Experiment in data set [40]: not given
The source holds these as a separate data set.

Data set [41] is described as follows: method code SF-AS, from DOI: 10.1155/2011/965826, PMID: 22295208.
Experiment in data set [42]: not given
This is another data set of the same source.

Experiment in data set [43]: not given
This is another data set of the same source.

Experiment in data set [44]: not given
The source holds these as a separate data set.

A short description of data set [45]: method code SF-GLC, from DOI: 10.1021/es60128a001.

The compound `CC(C)Cn1cnc2c(N)nc3ccccc3c21` came in with a logP of 2.89. As to `Cc1cccc(Nc2ccccc2C(=O)O)c1C`, the logP in [1] is 4.38. `O=C1c2ccccc2C(=O)C1c1ccccc1`: the logP in data set [2] was found to be 2.5. `CC(C)NCC1CCc2cc(CO)c([N+](=O)[O-])cc2N1` (stereo unspecified): the logP in data set [3] turned out to be 2.24.

As for `CC(C1CCCCC1)N(C)C(=O)c1ccc[nH]1` (stereo unspecified), the logD (usually the decadic logarithm of the distribution of all forms, ionised or not, between an organic phase and buffer at a given pH) in data set [4] amounted to 1.48. Compound `Cc1ccc(Cl)c(OCC(O)CNC(C)(C)C)c1` (stereo unspecified) displayed a logP in [5] of 2.8.

For the compound `COc1cccc(N2CCN(CCN(C)C)C2=O)c1`, the logP in data set [6] turned out to be 1.76. Compound `CN(C)c1ccc(-c2nc3ccc(I)cc3[nH]2)cc1` came in with a logD in data set [7] of 2.8.

Turning to `O=c1c(O)c(-c2ccc(O)c(O)c2)oc2cc(O)cc(O)c12`, in data set [8], the logP is 2.13. In turn, `CCCCCCCCc1ccccc1` had a logP in data set [9] of 6.5.

As to `CCOC(=O)c1ncn2c1CN(C)C(=O)c1c(I)cccc1-2`, the logD in data set [10] turned out to be 1.48. `CNc1ccc(-c2cc3cc(I)ccc3o2)cc1` came in with a logD in data set [11] of 2.04. In turn, `CCCCCOC(=O)[C@@H](N)Cc1ccc(O)c(O)c1` showed a logD in data set [12] of 1.5. With `CC(O)C1=CCN(NC(=O)c2ccccc2)CC1` (stereo unspecified), in data set [13], the logP was found to be 0.04. In turn, `COc1cc(Cc2cnc(N)nc2N)c(I)c(OC)c1OC` showed a logP in data set [14] of 1.79.

Regarding `CC(C)(c1cc(Br)c(O)c(Br)c1)c1cc(Br)c(O)c(Br)c1`, the logP in data set [15] was determined as 5.2. In data set [16], `O=C(NCCCCCF)Oc1cccc(C2=NCCO2)c1` displayed a logD of 2.33. With `Cc1ccc2ccc3ccccc3c2c1`, the logP in [17] stood at 5.15. In [18], `CCCOC(=O)c1ccccc1C(=O)OCCC` returned a logP of 4.05. In turn, `CNC(=O)ON=Cc1cccc(Oc2ccccc2)c1` registered a logP in data set [19] of 3.12. With `CO[C@@]1(NC(=O)CSCC#N)C(=O)N2C(C(=O)O)=C(CSc3nnnn3C)CS[C@@H]21`, the logP in data set [20] is -0.6. `FCCON=C1C=C(C#Cc2ccccn2)CCC1` came in with a logD in data set [21] of 2.1. On to `Nc1ccc(-c2ccc3ccccc3n2)cc1`, for which the logD in data set [22] stood at 1.85. Take `Cc1c(-c2ccc(OCCCc3c[nH]cn3)cc2)no[n+]1[O-]`: in data set [23], the logP turned out to be 2.4.

Regarding `CSc1ccc(COCCCc2c[nH]cn2)cc1`, the logD in data set [24] worked out at 1.88.

In the case of `CCCCCC(=O)N[C@@H]1C(=O)N2[C@@H]1SC(C)(C)[C@@H]2C(=O)O`, the logD in data set [25] worked out at 2.37. `CNc1ccc(-c2nc3ccc(C)cc3s2)cc1` displayed a logD in data set [26] of 3.36.

In turn, `O=C(Cn1c(=O)sc2ccc(Cl)cc21)N1CCN(CCO)CC1` had a logD in data set [27] of 1.04. Regarding `CC(C)(C)C(=O)OCC1OC(n2cc(I)c(=O)[nH]c2=O)CC1O` (stereo unspecified), the logD in data set [28] came to 1.34. For `COc1c(O)cc2c(c1O)C1OC(CO)C(O)C(O)C1OC2=O` (stereo unspecified), in data set [29], the logD is -1.06. In data set [30], `CNC(=O)Oc1cc(C(C)C)cc(C(C)C)c1` gave a logP of 3.55.

As to `CN1CCN(CCC(=O)c2ccccc2)CC1`, the logD in data set [31] amounted to 1.12. For the compound `Cc1c2ccccc2cc2ccccc12`, the logP in [32] came to 4.96. Regarding `CC(C(=O)O)c1ccc2c(c1)[nH]c1ccc(Cl)cc12` (stereo unspecified), in data set [33], the logP is 4.04. In [34], `O=C1c2ccccc2OC(c2ccccc2)C1O` (stereo unspecified) displayed a logP of 2.57.

Regarding `CCN(CC)CCNC(=O)c1cc(Br)c(N)cc1OC`, the logP in data set [35] came out at 2.62.

Take `CCCN(CCOc1c(Cl)cc(Cl)cc1Cl)C(=O)n1ccnc1`: the logP in data set [36] came to 4.1.

Turning to `CC(C)(C)C(=O)CC(C(O)C(C)(C)C)n1cncn1` (stereo unspecified), in [37], the logP amounted to 1.95. For `CCCCCCCCOC(=O)c1cccnc1`, in [38], the logP was determined as 4.71. In turn, `O=c1c(O)c(-c2cc(O)c(O)c(O)c2)oc2cc(O)cc(O)c12` displayed a logP in [39] of 0.72. For `COC(=O)C1(O)c2ccccc2-c2ccccc21`, in [40], the logP came to 1.67. On to `CC(=O)OC[C@H]1O[C@@H](n2cnc(N)nc2=O)[C@H](OC(C)=O)[C@@H]1OC(C)=O`, for which the logP in data set [41] is -0.61. In the case of `CC1CCCC(C)N1NC(=O)c1ccc(Cl)c(S(N)(=O)=O)c1` (stereo unspecified), in data set [42], the logP was determined as 1.18. For `S=C(CCCCC1CCSS1)NCCN1CCOCC1` (stereo unspecified), in data set [43], the logP was 2.9. In turn, `COc1ccc(CN2CCNCC2)c(OC)c1OC` had a logP in data set [44] of 1.04. In data set [45], `CCOP(=S)(OCC)SC(CCl)N1C(=O)c2ccccc2C1=O` (stereo unspecified) showed a logP of 4.69.
